From patent US20250375492A1, “MONASCUS PILOSUS STRAIN, COMPOSITION FOR PREVENTING OR TREATING NONALCOHOLIC FATTY LIVER DISEASE AND USE OF SAID MONASCUS PILOSUS” (SUNWAY BIOTECH CO., LTD., priority 2024, published 2025)

Test system: gut microbiota of nonalcoholic fatty liver mice
Assay: Gut microbiota analysis (full-length 16S sequencing) in nonalcoholic fatty liver mice
Format: in vivo, C57BL/6J mice
Conditions: compared with the HFD group; L008, H008 and Msol groups; FIG. 9
Experimental: The experiment used 7-week-old male C57BL/6J strain mice purchased from the National Laboratory Animal Center. The initial body weight was about 23 g, with 12 mice per group. They were housed at 60% relative humidity, room temperature 25±1° C., with a 12-hour light cycle (8:00-20:00). The experiment lasted for 22 weeks, during which food and water were provided ad libitum. Body weight, food intake, and water consumption were measured weekly.
Embodiment 4 uses a high-fat feed to induce a nonalcoholic fatty liver animal model. The animal experiment lasted for 22 weeks. Animal test feed was prepared according to the formula of Research Diets (New Brunswick, NJ, USA) for D12450B and D12492. The grouping is as follows: • i. […]
Total genomic DNA was extracted from samples (QIAamp PowerFecal DNA, Qiagen). DNA concentration was determined using a Qubit 4.0 fluorometer (Thermo Scientific) and adjusted to 1 ng/μL. […] PCR reactions were performed using KAPA HiFi HotStart ReadyMix (Roche): 95° C., 3 minutes; 20-27 cycles (sample-dependent): 95° C., 30 seconds, 57° C., 30 seconds, 72° C., 60 seconds; 72° C. for 5 minutes, and final storage at 4° C. PCR products were monitored on 1% agarose gel. […]
Sample data were demultiplexed from the raw data based on Barcode sequences and PCR amplification primer sequences. […] The sequences with primers removed were used as QIIME2 DADA2 Input Reads. […]

With Monascinol [Msol] the “microbial population (abundance) of Blautia in the intestine” value was “increase” and the “microbial population (abundance) of Intestinimonas in the intestine” value was “increase”.
